Assay results: US20250257060A1, “OXADIAZOLE COMPOUND, PHARMACEUTICAL COMPOSITION COMPRISING SAME, AND USE THEREOF” (SUZHOU GENHOUSE BIO CO., LTD., priority 2022, published 2025)
Read-outs that look alike come from different tables or passages of the source.

Legend:
[1] = Phase I metabolic stability in human liver microsomes (HLMs); type: in vitro ADME, humans; details: HLM; for Remaining rate (NCF = 60 min): buffer instead of NADPH regeneration system; for Remaining rate (T = 60 min): with NADPH; for CLint scaled at 1 µM / half-life at 1 M / microsomal CLint at 1 M: human, liver microsomes, pH 7.4; for microsomal CLint at 1 M: read-out: CLint (mic)
Experimental: Phase I metabolic stability of the test compounds in liver microsomes of CD-1 mice (MLMs), Sprague-Dawley rats (RLMs), beagle dogs (DLMs), cynomolgus monkeys (CLMs), and humans (HLMs) was evaluated.
The animal and human liver microsomes used in the test system were purchased from Xenotech, Corning, or other qualified suppliers and stored in a freezer at a temperature below −60° C. prior to use.
The test samples and control compounds were separately incubated with animal and human liver microsomes at 37±1° C. for a period of incubation time up to 60 min. The samples were removed at the indicated time points, and the reaction was stopped with acetonitrile or other organic solvents containing an internal standard. After centrifugation, the resulting supernatants were assayed by liquid chromatography-tandem mass spectrometry (LC-MS/MS).
73.21 g of dipotassium hydrogenphosphate trihydrate and 10.78 g of potassium dihydrogenphosphate were dissolved in 4000 mL of ultrapure water. The solution was adjusted to pH 7.40±0.10 with 10% phosphoric acid or 1 M potassium hydroxide to make a final concentration of 100 mM.
The test sample powder was prepared into a stock solution at a certain concentration with DMSO or other organic solvents, which was then further diluted with a proper organic solvent.
Microsomes of each species were diluted into a 2× working solution with a 100 mM potassium phosphate buffer. The final concentration of the microsomes in the reaction system was 0.5 mg/mL.
An appropriate amount of nicotinamide adenine dinucleotide phosphate (NADP) and isocitric acid (ISO) powder was weighed out, dissolved in a magnesium chloride solution, and shaken and mixed well. An appropriate amount of isocitrate dehydrogenase (IDH) was added, and the mixture was mixed well by gently turning upside down. The final concentrations in the reaction system were: 1 mM NADP, 1 mM magnesium chloride, 6 mM ISO, and 1 unit/mL IDH.
Incubation was performed in a 96-well plate. Eight incubation plates were prepared and designated T0, T5, T15, T30, T45, T60, Blank60, and NCF60, respectively. The first 6 plates corresponded to reaction time points of 0, 5, 15, 30, 45, and 60 min, respectively. No test sample or control compound was added to the Blank60 plate, and samples were taken after 60 min of incubation. In the NCF60 plate, incubation was performed for 60 min using the potassium phosphate buffer instead of the NADPH regeneration system solution. Three replicates were made for samples in all conditions.
The microsomes and the test sample or control compound were mixed, and then the incubation plates Blank60, T5, T15, T30, T45, and T60 except for TO and NCF60 were placed in a 37° C. water bath for pre-incubation for about 10 min. In the incubation plate TO, a stop solution was first added, followed by addition of the NADPH regeneration system working solution, and 98 μL of the potassium phosphate buffer was added to each sample well of the incubation plate NCF60 to initiate the reaction. After the pre-incubations of the incubation plates Blank60, T5, T15, T30, T45, and T60 were completed, 98 μL of the NADPH regeneration system working solution was added to each sample well to initiate the reaction. The reaction temperature was 37±1° C., the final volume of the reaction was 200 μL, and the reaction system included 0.5 mg/mL microsomes, […], 1 mM NADP, 6 mM ISO, and 1 unit/mL IDH.
At 5 min, 15 min, 30 min, 45 min, and 60 min, a cold stop solution containing an internal standard was added to the reaction plate to stop the reaction.
All the reaction plates after the reaction was stopped were shaken well and centrifuged at 3220×g at 4° C. for 20 min. After the supernatant was diluted according to a certain proportion, LC-MS/MS analysis was performed.
Sample analysis was performed by the liquid chromatography-tandem mass spectrometry (LC-MS/MS) method without standard curves and quality control samples. […]

[2] = Pharmacokinetic test in mice (IV and PO); type: in vivo, BALB/c mice; details: for Cmax / AUC(0-inf) / AUC(0-t) / MRT inf / Vd / Tmax: BALB/c, mouse, plasma; for MRT inf: read-out: MRT(0-∞); for Vd: read-out: Vz
Method in brief: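 BALB/c mice (3 per group) given single IV or intragastric doses; blood sampled orbitally at 0.25–24 h into K2-EDTA tubes for plasma. Concentrations measured by LC-MS/MS; parameters from non-compartmental analysis with linear-log trapezoidal method.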

[3] = po, 10 mg/kg, read-out: C0/Cmax
[4] = po, 100 mg/kg, read-out: C0/Cmax
[5] = mice, PO 30 mg/kg (Cmax), read-out: C0/Cmax

Structure (SMILES) | Remaining rate (NCF = 60 min) [1] [%] | Remaining rate (T = 60 min) [1] [%] | CLint scaled at 1 µM [1] [mL/min/kg] | half-life at 1 M [1] [h] | Cmax [2, 3] [µM] | AUC(0-inf) ([2]; mice, IV 2 mg/kg) [µM·h] | AUC(0-t) ([2]; mice, IV 2 mg/kg) [µM·h] | Cmax ([2]; mice, IV 2 mg/kg (C0)) [µM] | MRT inf ([2]; mice, IV 2 mg/kg) [h] | Vd ([2]; mice, IV 2 mg/kg) [L/kg] | AUC(0-inf) ([2]; mice, PO 10 mg/kg) [µM·h] | AUC(0-t) ([2]; mice, PO 10 mg/kg) [µM·h] | Tmax ([2]; mice, PO 10 mg/kg) [h] | MRT inf ([2]; mice, PO 10 mg/kg) [h] | CLz ([2]; mice, IV 2 mg/kg) [mL/min/kg] | t½z ([2]; mice, IV 2 mg/kg) [h] | F ([2]; mice, PO 10 mg/kg) [%] | t½z ([2]; mice, PO 10 mg/kg) [h] | microsomal CLint at 1 M [1] [µL/min/mg] | Cmax [2, 4] [µM] | also measured
O=C(N[C@H]1[C@H](N2Cc3ccc(-c4nnc(C(F)F)o4)cc3S2(=O)=O)CCCC1(F)F)C(F)F [Compound 61] | 86.25 | 85.62 | 7.26 | 3.99 | 12.6 | 15.4 | 12.8 | 4.52 | 4.38 | 1.18 | 73.4 | 57 | 1 | 5.3 | 4.35 | 3.12 | 89.2 | 3.551 |  |  | 
O=C(N[C@@H]1CCCC[C@H]1N1Cc2ccc(-c3nnc(C(F)F)o3)cc2S1(=O)=O)C(F)F [Compound 2] | 97.3 | 86.1 | < 8.6 | > 2.42 | 13.9 | 12.6 | 12.6 | 6.75 | 2.35 | 0.55 | 77.8 | 77.7 | 0.5 | 4.5 | 6 | 1.01 | 123.92 | 1.62 | < 9.6 | 87.9 | AUC(0-inf) ([2]; mice, PO 30 mg/kg): 182 µM·h; AUC(0-t) ([2]; mice, PO 30 mg/kg): 182 µM·h; Tmax ([2]; mice, PO 30 mg/kg): 0.67 h; Cmax [2, 5]: 35 µM; MRT inf ([2]; mice, PO 30 mg/kg): 3.66 h; AUC(0-inf) ([2]; mice, PO 100 mg/kg): 601 µM·h; AUC(0-t) ([2]; mice, PO 100 mg/kg): 601 µM·h; Tmax ([2]; mice, PO 100 mg/kg): 1.33 h; MRT inf ([2]; mice, PO 100 mg/kg): 4.33 h; F ([2]; mice, PO 30 mg/kg): 96.93%; t½z ([2]; mice, PO 30 mg/kg): 0.87 h; F ([2]; mice, PO 100 mg/kg): 95.71%; t½z ([2]; mice, PO 100 mg/kg): 0.81 h
CC(F)(F)C(=O)N[C@@H]1CCCC[C@H]1N1Cc2ccc(-c3nnc(C(F)F)o3)cc2S1(=O)=O [Compound 1] | 83.4 | 79.0 | < 8.6 | > 2.42 | 8.97 | 9.88 | 9.88 | 4.52 | 2.19 | 0.684 | 45.2 | 45.2 | 1 | 3.35 | 7.1 | 1.062 | 91.46 | 0.919 | < 9.6 | 30.5 | AUC(0-inf) ([2]; mice, PO 30 mg/kg): 73.1 µM·h; AUC(0-t) ([2]; mice, PO 30 mg/kg): 73.1 µM·h; Tmax ([2]; mice, PO 30 mg/kg): 0.417 h; Cmax [2, 5]: 17.5 µM; MRT inf ([2]; mice, PO 30 mg/kg): 3.65 h; AUC(0-inf) ([2]; mice, PO 100 mg/kg): 171 µM·h; AUC(0-t) ([2]; mice, PO 100 mg/kg): 171 µM·h; Tmax ([2]; mice, PO 100 mg/kg): 1.5 h; MRT inf ([2]; mice, PO 100 mg/kg): 3.71 h; F ([2]; mice, PO 30 mg/kg): 49.31%; t½z ([2]; mice, PO 30 mg/kg): 0.918 h; F ([2]; mice, PO 100 mg/kg): 34.72%; t½z ([2]; mice, PO 100 mg/kg): 1.292 h
